Measured values taken from PMC7481357, “N-terminal Myristoylation Enhanced the Antimicrobial Activity of Antimicrobial Peptide PMAP-36PW” (Frontiers in Cellular and Infection Microbiology, 2020).
Residues, ends and D or L forms follow the SMILES beside them. *: point of attachment. Myristoyl = CCCCCCCCCCCCCC(=O)*

Key:
[1] = system: S. aureus ATCC 25923 and P. aeruginosa GIM 1.551; assay: pH stability testing (pH 2-13, then inhibition zone assay); type: cell-based, Staphylococcus aureus; Pseudomonas aeruginosa; details: for pH range of stable antimicrobial activity: peptides treated at pH 2–13, inhibition zone, 10 μg, n = 5
Experimental: For stability test, the Myr-36PW and peptides were treated with pH 2–13, and PBS buffer with different pH values was used as a control (Wang et al., [2019]). Inhibition zone assay was performed against S. aureus ATCC 25923 and P. aeruginosa GIM 1.551. The inhibition zone diameters of peptides (10 μg, 1 μg/μL) were measured after incubation for 18 h at 37°C, and the inhibition curve was drawn.
Figure 4 PH stability determination of Myr-36PW. PH stability test was performed using Myr-36PW and its analogs treated with different pH levels (2–13) through disk diffusion method. (A) (S. aureus ATCC 25923) and (B) (P. aeruginosa GIM 1.551) show the pH stability curve of PMAP-36, PMAP-36PW, and Myr-36PW. The diameter of the standard disk is 6 mm. Data represent the mean ± SD (n = 5).

S. aureus ATCC 25923 = type: cell-based, Staphylococcus aureus; details: ATCC 25923, 1 h
Experimental: The effects of abiotic factors on the antibacterial activity of Myr-36PW were investigated by MIC assay (Xi et al., [2013]; Zhong et al., [2019]). S. aureus ATCC 25923 and P. aeruginosa GIM 1.551 overnight cultures were diluted to 1 × 10^6 CFU/mL, and the MICs of peptides in MHB with different concentration of physiological salts (150 mM NaCL, 2 mM CaCL2) were determined. And after the peptides incubated in 10% mice serum for 1 h at 37°C, MICs of peptides against S. aureus ATCC 25923 and P. aeruginosa GIM 1.551 were determined. The MICs in MHB in the absence of physiological salts and serum were used as the control group.
Salt and serum stability in vitro were indicated by MIC assay. The concentrations of NaCl and CaCl2 were physiological concentration. 10% mice serum was inactivated by heat treatment for 15 min at 60 ℃。The control group was measured in the absence of physiological salts or serum in MHB.

[2] = system: S. aureus ATCC 25923, S. typhimurium SL 1344, and P. aeruginosa GIM 1.551; assay: Biofilm inhibition assay (crystal violet); type: cell-based; details: 0.25–128 μg/mL, 24 h at 37°C, crystal violet OD 620 nm; n = 5
Experimental: The biofilm-inhibiting ability of Myr-36PW was evaluated against S. aureus ATCC 25923, S. typhimurium SL 1344, and P. aeruginosa GIM 1.551 by using crystal violet dye (Chen et al., [2018]; de Breij et al., [2018]). Overnight cultured strains in TSB medium were diluted to 1 × 10^6 CFU/mL, 100 μL of bacterial suspension with 100 μL of different concentration of peptides (0.25–128 μg/mL) was added into a 96-well plate. Bacterial suspension without peptides was used the negative control. After incubation for 24 h at 37°C, the supernatant weas discarded, and the biofilm was gently washed with PBS, fixed in methanol for 20 min, stained with 0.1% (w/v) crystal violet for 10 min, and finally removed. After washing with PBS, 95% ethanol was added into wells, and the optical density (OD) was measured at 620 nm.
Figure 6 Biofilm inhibition and eradication of Myr-36PW. (A–C) Inhibition of biofilm formation by Myr-36PW. (D) Eradication of preformed biofilm by Myr-36PW. (E) Killing effect of Myr-36PW against biofilm bacteria. Inhibition rate % = [1 – OD620 nm(peptides)/OD620 nm(bacteria)] × 100%. Biofilm mass % = OD620 nm(peptides)/OD620 nm(control) × 100%. The control group was bacterial culture without peptides. Data represent the mean ± SD (n = 5).

P. aeruginosa GIM 1.551 = assay: Inhibition zone assay (disk diffusion); type: cell-based, Pseudomonas aeruginosa; parameters: key: +, means the peptide has antibacterial activity; details: disk 10 μg peptide, 18 h at 37°C, * P < 0.05, ** P < 0.01 vs PMAP-36PW
Experimental: (§1) The inhibition zone assay was performed through the disk diffusion to evaluate the antimicrobial activity of Myr-36PW in vitro (Dunne et al., [2017]). The four above-mentioned bacterial strains were used as experimental strains, with L. monocytogenes CICC 21634 cultured in BHI medium, and P. aeruginosa GIM 1.551 cultured in TSB medium. The bacterial cells were cultured for 12 h at 37°C in the appropriate medium, and the bacterial cell suspension was spread on LB agar. The disks containing 10 μg of peptides (1 μg/μL) were attached to the solid medium and incubated at 37°C for 18 h. Finally the diameter of the inhibition zone was measured.

S. typhimurium SL 1344 = assay: Inhibition zone assay (disk diffusion); type: cell-based, Salmonella typhimurium; parameters: key: +, means the peptide has antibacterial activity; details: disk 10 μg peptide, 18 h at 37°C, * P < 0.05, ** P < 0.01 vs PMAP-36PW
Experimental: as §1

[3] = Self-assembly of the peptide; type: physicochemical; details: stated in discussion, method not given
[4] = system: S. aureus ATCC 25923 and P. aeruginosa GIM 1.551; assay: Thermal stability testing (boiling, then inhibition zone assay); type: cell-based, Staphylococcus aureus; Pseudomonas aeruginosa; details: boiled 120 min, 10 μg peptide, n = 5
Experimental: For thermal stability analysis, the Myr-36PW and peptides were boiled for 10, 20, 30, 40, 50, 60, 90, and 120 min as reported (Ebbensgaard et al., [2015]) with unboiled peptides as controls. Inhibition zone assay was performed against S. aureus ATCC 25923 and P. aeruginosa GIM 1.551. The inhibition zone diameters of peptides (10 μg, 1 μg/μL) were measured after incubation for 18 h at 37°C, and the inhibition curve was drawn.
Figure 3 Thermal stability determination of Myr-36PW by boiling. Thermal stability test of Myr-36PW and its analogs by boiling in different times (0, 10, 20, 30, 40, 50, 60, 90, and 120 min) via disk diffusion method. (A) (S. aureus ATCC 25923) and (B) (P. aeruginosa GIM 1.551) show the thermal stability curves of PMAP-36, PMAP-36PW, and Myr-36PW. The diameter of the standard disk is 6 mm. Data represent the mean ± SD (n = 5).

CCCCCCCCCCCCCC(=O)NCC(=O)NCC(=O)N[C@@H](CCCNC(=N)N)C(=O)N[C@@H](Cc1ccccc1)C(=O)N[C@@H](CCCNC(=N)N)C(=O)N[C@@H](CCCNC(=N)N)C(=O)N[C@@H](CC(C)C)C(=O)N[C@@H](CCCNC(=N)N)C(=O)N[C@@H](CCCCN)C(=O)N[C@@H](CCCCN)C(=O)N[C@H](C(=O)N[C@@H](CCCNC(=N)N)C(=O)N[C@@H](CCCCN)C(=O)N[C@@H](CCCNC(=N)N)C(=O)N[C@@H](CC(C)C)C(=O)N[C@@H](CCCCN)C(=O)N[C@@H](CCCCN)C(=O)N[C@H](C(=O)NCC(=O)N[C@@H](CCCCN)C(=O)N[C@H](C(=O)N[C@@H](CC(C)C)C(=O)N[C@@H](CCCCN)C(=O)N[C@@H](Cc1c[nH]c2ccccc12)C(=O)N[C@H](C(=O)N[C@@H](Cc1c[nH]c2ccccc12)C(=O)N[C@@H](Cc1c[nH]c2ccccc12)C(=O)N[C@H](C(=O)N[C@H](C(=O)NCC(=O)N[C@@H](CO)C(=O)N[C@H](C(=O)N1CCC[C@H]1C(=O)N[C@@H](CC(C)C)C(=O)NCC(=O)N[C@@H](CS)C(=O)NCC(=O)O)[C@@H](C)CC)C(C)C)[C@@H](C)CC)[C@@H](C)CC)C(C)C)[C@@H](C)CC)[C@@H](C)O [Myr-36PW] (Myristoyl-GGRFRRLRKKTRKRLKKIGKVLKWIWWIVGSIPLGCG-OH; C-terminus assumed)
pH range of stable antimicrobial activity ([1]; against P. aeruginosa GIM 1.551): 5–11 pH
pH range of stable antimicrobial activity ([1]; against S. aureus ATCC 25923): 5–9 pH
Antimicrobial activity at pH 2 ([1]; inhibition zone, 10 μg peptide): higher than that of PMAP-36PW
Antimicrobial activity at pH 13 ([1]; inhibition zone, 10 μg peptide): disappeared
MICs, Control (S. aureus ATCC 25923): 0.0156 µg/mL
MICs, Serum (S. aureus ATCC 25923): 0.0313 µg/mL
Inhibition of biofilm formation [2]: biofilm inhibition against the tested bacteria in a concentration-dependent manner
In vitro antibacterial activity (disk diffusion) (P. aeruginosa GIM 1.551): +**
In vitro antibacterial activity (disk diffusion) (S. typhimurium SL 1344): +*
Self-assembly [3]: not self-assembly
Antimicrobial activity after boiling (thermal stability) [4]: retaining high bacterial inhibition
